# Target: T1, HGFR (Homo sapiens, UniProt P08581)
# T1 construct: purchased Upstate 14-526
# Test: HGFR continuous-coupled spectrophotometric assay
# Assay type: biochemical
# Conditions: for I(%): Table 3, Ki(μM) or I(%), test concentration not given; for inhibition at 1 µM: Table 6, percent c-MET inhibition at 1 μM, read-out: % inhibition; for inhibition at 0.05 µM: Table 5, percent c-MET inhibition at 50 nM
# T1 sequence (P08581 974-1390 limits assumed): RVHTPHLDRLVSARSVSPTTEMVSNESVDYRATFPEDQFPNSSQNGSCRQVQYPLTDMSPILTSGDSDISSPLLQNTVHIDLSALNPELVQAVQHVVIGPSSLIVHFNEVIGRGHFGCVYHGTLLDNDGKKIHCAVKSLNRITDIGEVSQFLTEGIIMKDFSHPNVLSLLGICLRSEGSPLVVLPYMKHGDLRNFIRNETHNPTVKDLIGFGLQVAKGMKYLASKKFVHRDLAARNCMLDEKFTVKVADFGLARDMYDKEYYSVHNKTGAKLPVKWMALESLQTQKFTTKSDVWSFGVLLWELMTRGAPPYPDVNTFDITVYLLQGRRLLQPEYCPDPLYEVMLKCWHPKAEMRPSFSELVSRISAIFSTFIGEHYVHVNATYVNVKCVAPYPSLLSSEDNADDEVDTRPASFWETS
inhibition at 1 µM [%],% inhibition,Structure (SMILES),other results
–,–,"CCN1CCN(C(=O)c2ccc(-c3cnc(N)c(OCc4ccccc4)c3)cc2)CC1 [Example I-623, [4-(6-Amino-5-benzyloxy-pyridin-3-yl)-phenyl]-(4-ethyl-piperazin-1-yl)-methanone]",I(%): 7%
22,–,Nc1ncc(C(=O)NC(CO)c2cccnc2)cc1OCc1c(Cl)cccc1Cl (centres unmarked),–
31,–,Nc1ncc(C(=O)NCCC2CCOCC2)cc1OCc1c(Cl)cccc1Cl,–
–,% inhibition = 40,Nc1ncc(-c2ccc(C(=O)N3CCC(N4CCCC4)CC3)cc2)cc1OCc1cccc(Cl)c1Cl,–
32,–,Nc1ncc(C(=O)NCC(O)CN2CCC(Cc3ccccc3)CC2)cc1OCc1c(Cl)cccc1Cl (centres unmarked),–
30,–,CN(CC#N)C(=O)c1cnc(N)c(OCc2c(Cl)cccc2Cl)c1,–
–,% inhibition = 19,CC(C)Oc1cc(C(F)(F)F)nc2ccc(COc3cc(-c4ccc(C(=O)N5CCC(N6CCCC6)CC5)cc4)cnc3N)cc12,–
–,% inhibition = 13,Nc1ncc(-c2ccc(C(=O)N3CCC(N4CCCC4)CC3)cc2)cc1OCc1ccc(S(=O)(=O)c2ccc(F)cc2)cc1,–
–,% inhibition = 9,N#Cc1nc(COc2cc(-c3ccc(C(=O)N4CCC(N5CCCC5)CC4)cc3)cnc2N)cnc1N,–
33,–,Nc1ncc(C(=O)N2CCCC(O)C2)cc1OCc1c(Cl)cccc1Cl (centres unmarked),–
–,% inhibition = 19,Nc1ncc(-c2ccc(C(=O)N3CCC(N4CCCC4)CC3)cc2)cc1OCc1cc(Cl)cc(Cl)c1,–
–,% inhibition = 24,Nc1ncc(-c2ccc(C(=O)N3CCC(N4CCCC4)CC3)cc2)cc1OCc1cc(F)ccc1Br,–
–,–,CC(=O)NC1CCN(C(=O)c2ccc(-c3cnc(N)c(OC(C)c4c(Cl)ccc(F)c4Cl)c3)cc2)C1 (centres unmarked),inhibition at 0.05 µM: 77%
–,% inhibition = 16,Cc1cccnc1COc1cc(-c2ccc(C(=O)N3CCC(N4CCCC4)CC3)cc2)cnc1N,–
–,–,CCC1CCCCN1C(=O)c1ccc(-c2cnc(N)c(OC(C)c3c(Cl)ccc(F)c3Cl)c2)cc1 (centres unmarked),inhibition at 0.05 µM: 56%
–,% inhibition = 13,Nc1ncc(-c2ccc(C(=O)N3CCC(N4CCCC4)CC3)cc2)cc1OCc1ccc(F)c(C(F)(F)F)c1,–
–,% inhibition = 49,Nc1ncc(-c2ccc(C(=O)N3CCC(N4CCCC4)CC3)cc2)cc1OCc1ccc(OCc2ccccc2)cc1,–
–,% inhibition = 20,CN(C)CCNC(=O)c1cccc(COc2cc(-c3ccc(C(=O)N4CCC(N5CCCC5)CC4)cc3)cnc2N)c1,–
40,–,CC(C)CC(NC(=O)c1cnc(N)c(OCc2c(Cl)cccc2Cl)c1)C(N)=O (centres unmarked),–
35,–,CC(CCCC(C)(C)O)NC(=O)c1cnc(N)c(OCc2c(Cl)cccc2Cl)c1 (centres unmarked),–
–,–,"CC1CN(C(=O)c2ccc(-c3cnc(N)c(OCc4ccccc4)c3)cc2)CC(C)N1 (centres unmarked) [Example I-621, {4-(6-Amino-5-benzyloxy-pyridin-3-yl)-phenyl]-(3,5-dimethyl-piperazin-1-yl)-methanone]",I(%): 6%
–,% inhibition = 9,Nc1ncc(-c2ccc(C(=O)N3CCC(N4CCCC4)CC3)cc2)cc1OCc1ncccn1,–
–,% inhibition = 23,COc1cccc(COc2cc(-c3ccc(C(=O)N4CCC(N5CCCC5)CC4)cc3)cnc2N)c1OC,–
–,% inhibition = 19,Nc1ncc(-c2ccc(C(=O)N3CCC(N4CCCC4)CC3)cc2)cc1OCc1cc(F)c(F)c(F)c1,–
–,% inhibition = 10,Nc1ncc(-c2ccc(C(=O)N3CCC(N4CCCC4)CC3)cc2)cc1OCc1nnsc1Cl,–
20,–,Nc1ncc(C(=O)N2CCC(O)(CN3CCCC3=O)C2)cc1OCc1c(Cl)cccc1Cl (centres unmarked),–
34,–,Nc1ncc(C(=O)NCCc2ccc(O)cc2)cc1OCc1c(Cl)cccc1Cl,–

inhibition at 1 µM [%],% inhibition,Structure (SMILES),other results
–,% inhibition = 7,Cn1nc(CC2CC2)nc1COc1cc(-c2ccc(C(=O)N3CCC(N4CCCC4)CC3)cc2)cnc1N,–
22,–,Nc1ncc(C(=O)N2CCNC(=O)C2)cc1OCc1c(Cl)cccc1Cl,–
–,–,"Nc1ncc(-c2ccc(C(=O)N3CCC(N4CCCC4)CC3)cc2)cc1OCC1CCCCC1 [Example I-628, [4-(6-Amino-5-cyclohexylmethoxy-pyridin-3-yl)-phenyl]-(4-pyrrolidin-1-yl-piperidin-1-yl)-methanone]",I(%): 7%
24,–,CN1CCN(CCCNC(=O)c2cnc(N)c(OCc3c(Cl)cccc3Cl)c2)CC1,–
–,% inhibition = 8,Cc1cc(COc2cc(-c3ccc(C(=O)N4CCC(N5CCCC5)CC4)cc3)cnc2N)nc(-c2ccc(C(F)(F)F)cn2)n1,–
–,% inhibition = 28,Cc1cccc(COc2cc(-c3ccc(C(=O)N4CCC(N5CCCC5)CC4)cc3)cnc2N)c1F,–
–,% inhibition = 16,Cc1cc(COc2cc(-c3ccc(C(=O)N4CCC(N5CCCC5)CC4)cc3)cnc2N)no1,–
–,% inhibition = 77,N#Cc1ccccc1-c1ccc(COc2cc(-c3ccc(C(=O)N4CCC(N5CCCC5)CC4)cc3)cnc2N)cc1,–
–,% inhibition = 31,Nc1ncc(-c2ccc(C(=O)N3CCC(N4CCCC4)CC3)cc2)cc1OCc1ccc(C(=O)c2ccccc2)cc1,–
–,–,CC(Oc1cc(-c2ccc(C(=O)N3CCNC(=O)C3C)cc2)cnc1N)c1c(Cl)ccc(F)c1Cl (centres unmarked),inhibition at 0.05 µM: 86%
36,–,Nc1ncc(C(=O)NCCc2c[nH]c3ccc(Cl)cc23)cc1OCc1c(Cl)cccc1Cl,–
–,–,"Cc1cc(C)c(COc2cc(-c3ccc(C(=O)N4CCC(N5CCCC5)CC4)cc3)cnc2N)c(C)c1 [Example I-653, {4-[6-Amino-5-(2,4,6-trimethyl-benzyloxy)-pyridin-3-yl]-phenyl}-(4-pyrrolidin-1-yl-piperidin-1-yl)-methanone]",I(%): 2%
33,–,Nc1ncc(C(=O)NCc2ccc(F)cc2F)cc1OCc1c(Cl)cccc1Cl,–
74,–,CCC(CC)CN1CCC2(CC1)CC(NC(=O)c1cnc(N)c(OCc3c(Cl)cccc3Cl)c1)CO2 (centres unmarked),–
–,–,CC(Oc1cc(-c2ccc(C(=O)N3CCCC(C(N)=O)C3)cc2)cnc1N)c1c(Cl)ccc(F)c1Cl (centres unmarked),inhibition at 0.05 µM: 84%
–,–,CC(O)CCNC(=O)c1ccc(-c2cnc(N)c(OC(C)c3c(Cl)ccc(F)c3Cl)c2)cc1 (centres unmarked),inhibition at 0.05 µM: 77%
–,% inhibition = 22,Nc1ncc(-c2ccc(C(=O)N3CCC(N4CCCC4)CC3)cc2)cc1OCc1ccccc1-c1ccccc1,–
–,–,CC(Oc1cc(-c2ccc(C(=O)N3C[C@@H](C)N[C@@H](C)C3)cc2)cnc1N)c1ccccc1C(F)(F)F (some centres unmarked) [Example I-616],I(%): 3%
–,% inhibition = 26,Nc1ncc(-c2ccc(C(=O)N3CCC(N4CCCC4)CC3)cc2)cc1OCc1cc(C(F)(F)F)ccc1Cl,–
–,% inhibition = 22,Nc1ncc(-c2ccc(C(=O)N3CCC(N4CCCC4)CC3)cc2)cc1OCc1cccc2cccnc12,–
–,% inhibition = 12,Cc1nc2ccc(COc3cc(-c4ccc(C(=O)N5CCC(N6CCCC6)CC5)cc4)cnc3N)cc2c(=O)[nH]1,–
–,–,COC(=O)C(CO)NC(=O)c1ccc(-c2cnc(N)c(OC(C)c3c(Cl)ccc(F)c3Cl)c2)cc1 (centres unmarked),inhibition at 0.05 µM: 81%
25,–,Nc1ncc(C(=O)N2CCC(O)(CCc3ccncc3)CC2)cc1OCc1c(Cl)cccc1Cl,–
33,–,Nc1ncc(C(=O)NCCc2ccccc2F)cc1OCc1c(Cl)cccc1Cl,–
34,–,Nc1ncc(C(=O)NCC2COc3ccccc3O2)cc1OCc1c(Cl)cccc1Cl (centres unmarked),–
–,% inhibition = 15,Nc1ncc(-c2ccc(C(=O)N3CCC(N4CCCC4)CC3)cc2)cc1OCc1ccc(S(=O)(=O)Nc2ccc(F)cc2)cc1,–
